Experimental data from publication PMC2766802 (Analytical biochemistry, 2009).
Where a name gives a salt, the structure may show the parent alone. Read-outs that look alike come from different tables or passages of the source.

What was measured:
hERG channel = hERG channel (Homo sapiens, UniProt Q12809)
[1] = system: untransduced U-2 OS cells; assay: thallium flux counter-screen in untransduced U-2 OS cells; assay type: cell-based, human; conditions: concentration response (Fig. 3A)
[2] = IC50, LOPAC 1280 library qHTS, titration series, hERG-expressing U-2 OS cells

Sequence of hERG channel (Q12809 whole entry): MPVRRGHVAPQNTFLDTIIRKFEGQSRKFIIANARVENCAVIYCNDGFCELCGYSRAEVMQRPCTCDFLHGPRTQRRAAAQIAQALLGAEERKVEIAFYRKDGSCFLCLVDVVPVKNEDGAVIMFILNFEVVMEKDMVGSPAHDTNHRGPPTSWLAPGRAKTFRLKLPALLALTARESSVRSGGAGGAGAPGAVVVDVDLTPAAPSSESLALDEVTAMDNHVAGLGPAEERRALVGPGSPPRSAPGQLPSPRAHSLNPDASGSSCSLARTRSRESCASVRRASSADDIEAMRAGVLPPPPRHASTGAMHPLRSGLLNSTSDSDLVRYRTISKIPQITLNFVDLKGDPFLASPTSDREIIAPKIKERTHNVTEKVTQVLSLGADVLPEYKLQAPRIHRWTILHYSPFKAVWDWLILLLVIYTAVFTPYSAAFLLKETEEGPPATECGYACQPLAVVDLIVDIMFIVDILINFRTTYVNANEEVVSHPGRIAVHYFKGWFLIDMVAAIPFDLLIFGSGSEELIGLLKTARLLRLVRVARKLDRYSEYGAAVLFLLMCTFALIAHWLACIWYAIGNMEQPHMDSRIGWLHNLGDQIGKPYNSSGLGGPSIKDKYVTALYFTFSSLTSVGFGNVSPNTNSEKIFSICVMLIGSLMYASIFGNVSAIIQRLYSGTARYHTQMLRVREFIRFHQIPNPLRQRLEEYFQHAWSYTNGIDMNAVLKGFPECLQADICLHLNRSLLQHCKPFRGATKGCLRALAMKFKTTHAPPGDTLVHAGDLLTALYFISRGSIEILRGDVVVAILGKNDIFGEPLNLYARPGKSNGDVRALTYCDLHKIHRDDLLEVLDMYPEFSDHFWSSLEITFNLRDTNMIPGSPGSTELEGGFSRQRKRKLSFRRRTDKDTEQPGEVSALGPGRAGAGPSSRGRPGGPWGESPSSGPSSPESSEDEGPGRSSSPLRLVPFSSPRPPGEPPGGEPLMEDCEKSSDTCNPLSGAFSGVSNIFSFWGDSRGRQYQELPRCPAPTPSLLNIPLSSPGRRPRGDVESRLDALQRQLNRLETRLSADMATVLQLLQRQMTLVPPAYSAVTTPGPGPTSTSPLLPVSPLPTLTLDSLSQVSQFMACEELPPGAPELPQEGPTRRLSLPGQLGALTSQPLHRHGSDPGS

CCNC(=O)N1CCN(CCCC(c2ccc(F)cc2)c2ccc(F)cc2)CC1 [Amperozide hydrochloride]
IC50 (hERG channel; [2]): 60 nM

CCCCN1[C@@H]2CC[C@H]1CC(OC(c1ccc(F)cc1)c1ccc(F)cc1)C2 (some centres unmarked) [JHW 007 hydrochloride]
IC50 (hERG channel; LOPAC 1280 library qHTS, titration series, hERG-expressing U-2 OS cells): 90 nM

Cc1nc2sccn2c(=O)c1CCN1CCC(=C(c2ccc(F)cc2)c2ccc(F)cc2)CC1 [Ritanserin]
IC50 (hERG channel; [2]): 70 nM

CCOC(=O)C1=C[C@]2(CC)CCCN3CCc4c(n1c1ccccc41)[C@@H]32 [Vinpocetine]
IC50 (hERG channel): 140 nM

O=C(CCCN1CCC(O)(c2ccc(Cl)cc2)CC1)c1ccc(F)cc1 [haloperidol]
effect on untransduced cells [1]: no effect
